Measured values from patent publication US8900444B2, “Switchable hydrophilicity solvents and methods of use thereof” (Queen's University at Kingston, priority 2009, dated 2014).

Columns and labels:
Type in all cases: physicochemical
[1] = Qualitative switchability assessment of BA (Example 1B)
Description: The BA amidine's ability to act as a switchable hydrophilicity solvent for the separation of a selected substance is dependent on its ability to switch from the hydrophobic form to a hydrophilic form. This is achieved by adding water to provide an aqueous layer and decreasing the pH of the aqueous layer, namely by dissolving CO2 in the aqueous layer. When carbon dioxide dissolves in water, it forms carbonic acid with pKa1 of 6.4. The resultant dissociation is sufficient to protonate a hydrophobic amidine, causing it to become charged forming a hydrophilic amidinium bicarbonate (BAB). In this preliminary switching study, the amidine's ability to act as a base and its ability to switch hydrophilicity were studied.
Switching behavior was studied for BA over various periods of time. A glass vial (4 mL) was prepared, containing distilled water (1.0 mL) and BA amidine (0.5 mL).
CO2 was bubbled through the vial for roughly 30 minutes, until the top layer had disappeared showing that a hydrophilic solution of BAB in water had been formed.
A magnetic stirrer was placed in the vial. The vial was suspended in an 80° C. oil bath and stirred. The vial was intermittently removed from the bath and monitored for the presence of a second layer after 20, 50 and 75 minutes. The formation of a second layer (hydrophobic BA) was noted after 20 minutes in the oil bath.

[2] = Regeneration of BA from aqueous BAB using air (Example 1C)
Procedure: Switching behavior was studied for an aqueous solution of BAB. A glass vial (4 mL) was prepared, containing distilled water (1.0 mL) and BA (1.0 mL) as a two-phase mixture. CO2 was bubbled through the vial for roughly 30 minutes, until the top layer had disappeared showing that a single-phase solution of BAB in water had been formed.
Air was then bubbled through the same glass vial with the single-phase solution for approximately 5 hours at room temperature to displace CO2 from the solution. The formation of a second layer (hydrophobic BA) was noted.

[3] = Polarity study with solvatochromatic dye Nile Red (Example 3); settings: water-saturated BA or aqueous solution of BAB
Procedure: The maximum wavelength of absorption, λmax, of a switchable hydrophilicity solvent, N,N,N′-tributylpentanamidine (BA), was analyzed in its hydrophobic and hydrophilic forms using the solvatochromatic dye, Nile Red. A 1 Dram vial was prepared containing 1 mL of distilled water to which 1 mL of BA was added. […] This ensured saturation of the BA phase with water. The top phase comprising the BA liquid was pipetted into a quartz cuvette (Semi-Micro Cells, Self Masking Black Walls Spectrosil® Quartz, Starna Cells, Atascadero, Calif., USA) and 1 mg of Nile Red was added, to provide a bright orange-magenta solution. The ultraviolet absorbance spectrum was acquired on an Agilent Technologies ultraviolet/visible spectrometer 50-60 Hz with UV-Visible Chemstation software. The λmax was 510 nm. Distilled water (1.0 mL) was then added to the quartz cuvette and carbon dioxide was slowly bubbled into the mixture for 1 hour to switch the BA to its ionic form, N,N,N′-tributylpentanamidinium bicarbonate (BAB), after which the homogenous mixture turned purple. The ultraviolet absorbance spectrum of the aqueous solution of the dye and ionic salt was then acquired as discussed in the previous paragraph. The λmax was 570 nm.

time of CO2 bubbling until top layer disappeared ([1]; 1.0 mL water + 0.5 mL BA): roughly 30 minutes
heating time to formation of second (hydrophobic) layer ([1]; 80 °C oil bath, stirred): 20 min
time of CO2 bubbling until top layer disappeared ([2]; 1.0 mL water + 1.0 mL BA): roughly 30 minutes
time of air bubbling after which second layer was noted ([2]; room temperature): approximately 5 hours
maximum wavelength of absorption (λmax) of Nile Red [3]: 510 nm
SMILES: CCCCN=C(CCCC)N(CCCC)CCCC [BA, N,N,N′-tributylpentanamidine]
